Measurements from US7179823B1, “5-membered n-heterocyclic compounds with hypoglycemic and hypolipidemic activity” (Takeda Pharmaceutical Company Limited, priority 1999, dated 2007).

Row | melting point | SMILES
1 | 104 to 105 °C | CCOC(=O)CCc1cn(Cc2ccc(OCc3cn4c(-c5ccccc5)cccc4n3)cc2)nc1OCC [Example 231, ethyl 3-[3-ethoxy-1-[4-(5-phenylimidazo[1,2-a]pyridin-2-ylmethoxy)benzyl]-1H-pyrazol-4-yl]propionate]
2 | 160 to 161 °C | CCOc1nn(Cc2ccc(OCc3cn4c(-c5ccccc5)cccc4n3)cc2)cc1CCC(=O)O [Example 232, 3-[3-ethoxy-1-[4-(5-phenylimidazo[1,2-a]pyridin-2-ylmethoxy)benzyl]-1H-pyrazol-4-yl]propionic acid]
3 | 138 to 139 °C | CCOc1nn(Cc2ccnc(OCc3nc(-c4ccco4)oc3C)c2)cc1CCC(=O)O [Example 234, 3-[3-ethoxy-1-[2-[2-(2-furyl)-5-methyl-4-oxazolylmethoxy]-4-pyridylmethyl]-1H-pyrazol-4-yl]propionic acid]
4 | 160 to 161 °C | CCOc1nn(Cc2ccnc(OCc3cn4c(Cl)cccc4n3)c2)cc1CCC(=O)O [Example 236, 3-[1-[2-(5-chloroimidazo[1,2-a]pyridin-2-ylmethoxy)-4-pyridylmethyl]-3-ethoxy-1H-pyrazol-4-yl]propionic acid]
5 | 177 to 178 °C | CCOc1nn(Cc2ccnc(OCc3cn4c(-c5ccccc5)cccc4n3)c2)cc1CCC(=O)O [Example 238, 3-[3-ethoxy-1-[2-(5-phenylimidazo[1,2-a]pyridin-2-ylmethoxy)-4-pyridylmethyl]-1H-pyrazol-4-yl]propionic acid]
6 | 92 to 93 °C | CCOc1nn(Cc2ccc(OCc3cncc(-c4ccccc4)c3)cc2)cc1CCC(=O)O [Example 240, 3-[3-ethoxy-1-[4-(5-phenyl-3-pyridylmethoxy)benzyl]-1H-pyrazol-4-yl]propionic acid]
7 | 123 to 124 °C | CCOc1nn(Cc2cc(OCc3ccc4ccccc4n3)no2)cc1CCC(=O)O [Example 242, 3-[3-ethoxy-1-[3-(2-quinolylmethoxy)-5-isoxazolylmethyl]-1H-pyrazol-4-yl]propionic acid]
8 | 120 to 121 °C | CCOc1nn(Cc2ccc(OCc3nc(-c4ccccc4)ccc3Cl)cc2)cc1CCC(=O)O [Example 244, 3-[1-[4-(3-chloro-6-phenyl-2-pyridylmethoxy)benzyl]-3-ethoxy-1H-pyrazol-4-yl]propionic acid]
9 | 95 to 96 °C | CCOc1nn(Cc2ccc(OCc3cccc(-c4ccccc4)n3)cc2)cc1CCC(=O)O [Example 246, 3-[3-ethoxy-1-[4-(6-phenyl-2-pyridylmethoxy)benzyl]-1H-pyrazol-4-yl]propionic acid]
10 | 177 to 178 °C | CCOc1nn(Cc2ccc(OCc3nc4ccccc4n3C)cc2)cc1CCC(=O)O [Example 248, 3-[3-ethoxy-1-[4-(1-methyl-1H-benzimidazol-2-ylmethoxy)benzyl]-1H-pyrazol-4-yl]propionic acid]
11 | 127 to 128 °C | CCOc1nn(Cc2ccc(OCc3ccc(-c4ccccc4)cn3)cc2)cc1CCC(=O)O [Example 250, 3-[3-ethoxy-1-[4-(5-phenyl-2-pyridylmethoxy)benzyl]-1H-pyrazol-4-yl]propionic acid]
12 | 133 to 134 °C | CCOc1nn(Cc2ccc(OCc3ccc4ccccc4n3)nc2)cc1CCC(=O)O [Example 252, 3-[3-ethoxy-1-[6-(2-quinolylmethoxy)-3-pyridylmethyl]-1H-pyrazol-4-yl]propionic acid]
13 | 121 to 122 °C | CCOc1nn(Cc2ccc(OCc3csc(-c4ccccc4)n3)nc2)cc1CCC(=O)O [Example 254, 3-[3-ethoxy-1-[6-(2-phenyl-4-thiazolylmethoxy)-3-pyridylmethyl]-1H-pyrazol-4-yl]propionic acid]
14 | 133 to 134 °C | CCOc1nn(Cc2ccc(OCc3nc(-c4ccccc4)oc3C)cn2)cc1CCC(=O)O [Example 258, 3-[3-ethoxy-1-[5-(5-methyl-2-phenyl-4-oxazolylmethoxy)-2-pyridylmethyl]-1H-pyrazol-4-yl]propionic acid]
15 | 125 to 126 °C | CCOc1nn(Cc2ccc(OCc3nc(-c4ccccc4)oc3C)cc2)cc1CC(=O)O [Example 260, 3-ethoxy-1-[4-(5-methyl-2-phenyl-4-oxazolylmethoxy)benzyl]-1H-pyrazol-4-ylacetic acid]
16 | 155 to 156 °C | CCOc1nn(Cc2ccc(OCc3nc(-c4ccco4)oc3C)nc2)cc1CC(=O)O [Example 264, 3-ethoxy-1-[6-[2-(2-furyl)-5-methyl-4-oxazolylmethoxy]-3-pyridylmethyl]-1H-pyrazol-4-ylacetic acid]
17 | 78 to 79 °C | O=C(O)CCc1cn(Cc2cc(OCc3csc(-c4ccccc4)n3)cc(OCc3csc(-c4ccccc4)n3)c2)cc1-c1ccccc1 [Example 266, 3-[1-[3,5-bis(2-phenyl-4-thiazolylmethoxy)benzyl]-4-phenyl-3-pyrrolyl]propionic acid]
18 | 123 to 124 °C | Cc1oc(-c2ccccc2)nc1COc1ccc(Cn2cc(CCC(=O)O)c(-c3ccccc3)c2)cn1 [Example 268, 3-[1-[6-(5-methyl-2-phenyl-4-oxazolylmethoxy)-3-pyridylmethyl]-4-phenyl-3-pyrrolyl]propionic acid]
19 | 126 to 127 °C | CCOc1cc(Cn2cc(CCC(=O)O)c(-c3ccccc3)c2)cc(OCc2nc(-c3ccccc3)oc2C)c1 [Example 272, 3-[1-[3-ethoxy-5-(5-methyl-2-phenyl-4-oxazolylmethoxy)benzyl]-4-phenyl-3-pyrrolyl]propionic acid]
20 | 109 to 110 °C | CCOc1cc(Cn2cc(CCC(=O)O)c(-c3ccccc3)c2)cc(OCc2csc(-c3ccccc3)n2)c1 [Example 274, 3-[1-[3-ethoxy-5-(2-phenyl-4-thiazolylmethoxy)benzyl]-4-phenyl-3-pyrrolyl]propionic acid]
21 | 104 to 105 °C | CCOc1cc(Cn2cc(CCC(=O)O)c(-c3ccccc3)c2)cc(OCc2csc(-c3cccs3)n2)c1 [Example 276, 3-[1-[3-ethoxy-5-[2-(2-thienyl)-4-thiazolylmethoxy)benzyl]-4-phenyl-3-pyrrolyl]propionic acid]
22 | 185 to 186 °C | O=C(O)CCc1cn(Cc2ccc(OCc3ccc(-c4ccccc4)nc3)cc2)cc1-c1ccccc1 [Example 277, 3-[4-phenyl-1-[4-(6-phenyl-3-pyridylmethoxy)benzyl]-3-pyrrolyl]propionic acid]
23 | 169 to 170 °C | O=C(O)CCc1cn(Cc2ccc(OCc3ccc(-c4ccccc4)cn3)cc2)cc1-c1ccccc1 [Example 279, 3-[1-[4-(5-phenyl-2-pyridylmethoxy)benzyl]-4-phenyl-3-pyrrolyl]propionic acid]
24 | 103 to 104 °C | CCOC(=O)c1cn(Cc2ccc(OCc3ccccc3)cc2)nc1-c1ccc(F)cc1 [Example 280, ethyl 1-(4-benzyloxybenzyl)-3-(4-fluorophenyl)-1H-pyrazole-4-carboxylate]
25 | 113 to 114 °C | CCOC(=O)/C=C/c1cn(Cc2ccc(OCc3ccccc3)cc2)nc1-c1ccc(F)cc1 [Example 281, ethyl (E)-3-[1-(4-benzyloxybenzyl)-3-(4-fluorophenyl)-1H-pyrazol-4-yl]propenoate]
26 | 94 to 95 °C | CCOC(=O)/C=C/c1cn(Cc2ccc(OCc3ccccc3)cc2)nc1-c1ccccc1 [Example 284, ethyl (E)-3-[1-(4-benzyloxybenzyl)-3-phenyl-1H-pyrazol-4-yl]propenoate]
